Laboratory results taken from ChEMBL document CHEMBL1201862, “PubChem BioAssay data set” (2004).
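Exposure lasted 48 hours, with cells grown in 96-well plates and compounds tested at five concentrations. GI50 marks 50% less growth.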 Calls of active or inactive are those of the source. Cut-off read from the data, not from the text of the source: active = GI50 up to about 1.1 µM and inactive = higher.

Key:
Assay in all cases: NCI tumour cell line growth inhibition, 48 h
ACHN = system: ACHN
OVCAR-5 = system: OVCAR-5
NCI-H226 = system: NCI-H226
OVCAR-3 = system: OVCAR-3
UO-31 = system: UO-31
A549 = system: A549
SF-539 = system: SF-539
KM12 = system: KM12
CAKI-1 = system: CAKI-1
SN12C = system: SN12C
HOP-62 = system: HOP-62
TK-10 = system: TK-10
COLO 205 = system: COLO 205
IGROV-1 = system: IGROV-1
HOP-92 = system: HOP-92

Measured: GI50

Cc1cnc2ccc(C)c([N+](=O)[O-])c2c1NCCCN(C)C
inactive: ACHN > 100 µM | OVCAR-5 > 100 µM | NCI-H226 50 µM | OVCAR-3 > 100 µM | UO-31 27.2 µM | A549 > 100 µM | SF-539 > 100 µM | KM12 > 100 µM | CAKI-1 > 100 µM | SN12C > 100 µM | HOP-62 > 100 µM | TK-10 > 100 µM | COLO 205 76.2 µM

CCOC(=O)C1C(=O)c2ccccc2CN1Cc1ccccc1 (stereo unspecified)
inactive: ACHN > 100 µM | OVCAR-5 > 100 µM | NCI-H226 > 100 µM | OVCAR-3 > 100 µM | UO-31 > 100 µM | A549 > 100 µM | IGROV-1 > 100 µM | SF-539 > 100 µM | HOP-92 > 100 µM | KM12 > 100 µM | CAKI-1 > 100 µM | SN12C > 100 µM | HOP-62 > 100 µM | TK-10 > 100 µM | COLO 205 > 100 µM

CCc1cc(Cc2cc(CC)c(NC(=O)C(=O)Cc3ccccn3)c(CC)c2Cl)c(Cl)c(CC)c1NC(=O)C(=O)Cc1ccccn1
inactive: ACHN > 100 µM | OVCAR-5 > 100 µM | NCI-H226 > 100 µM | OVCAR-3 > 100 µM | UO-31 > 100 µM | A549 > 100 µM | IGROV-1 > 100 µM | SF-539 > 100 µM | HOP-92 > 100 µM | KM12 78.3 µM | CAKI-1 > 100 µM | SN12C > 100 µM | HOP-62 > 100 µM | TK-10 > 100 µM | COLO 205 64 µM

NNC(=O)N/N=C1\CN(c2ccc(Cl)cc2Cl)C(=O)C(=O)C1c1nc2ccccc2o1 (stereo unspecified)
inactive: ACHN > 100 µM | OVCAR-5 > 100 µM | NCI-H226 > 100 µM | OVCAR-3 > 100 µM | UO-31 92.5 µM | A549 > 100 µM | IGROV-1 > 100 µM | SF-539 > 100 µM | HOP-92 > 100 µM | KM12 > 100 µM | CAKI-1 > 100 µM | SN12C > 100 µM | HOP-62 > 100 µM | COLO 205 > 100 µM

COc1ccc(NC(=O)CC(=O)NN2C(=O)/C(=C/c3ccc(N(CCC#N)CCC#N)cc3C)N=C2/C=C\c2ccccc2)cc1
inactive: ACHN > 100 µM | OVCAR-5 > 100 µM | NCI-H226 > 100 µM | OVCAR-3 > 100 µM | UO-31 > 100 µM | A549 > 100 µM | IGROV-1 > 100 µM | SF-539 > 100 µM | HOP-92 > 100 µM | KM12 > 100 µM | CAKI-1 > 100 µM | SN12C > 100 µM | HOP-62 > 100 µM | TK-10 > 100 µM | COLO 205 > 100 µM

COc1ccc(OC)c(NC(=O)CCC/C(CC(=O)c2ccc(O)c(OC)c2)=N\Nc2nnc(C)n2N)c1
inactive: ACHN > 100 µM | OVCAR-5 > 100 µM | NCI-H226 > 100 µM | OVCAR-3 > 100 µM | UO-31 > 100 µM | A549 > 100 µM | IGROV-1 > 100 µM | SF-539 > 100 µM | HOP-92 > 100 µM | KM12 > 100 µM | CAKI-1 > 100 µM | SN12C > 100 µM | HOP-62 > 100 µM | TK-10 > 100 µM | COLO 205 > 100 µM

COc1cc(C2=NN(C)C(c3ccc([N+](=O)[O-])o3)C2)cc(OC)c1OC (stereo unspecified)
inactive: ACHN > 100 µM | OVCAR-5 > 100 µM | NCI-H226 > 100 µM | UO-31 72.1 µM | A549 > 100 µM | IGROV-1 > 100 µM | SF-539 49.7 µM | HOP-92 45.5 µM | KM12 > 100 µM | CAKI-1 > 100 µM | SN12C 83.8 µM | HOP-62 > 100 µM | TK-10 > 100 µM | COLO 205 36.9 µM
